Measured values published in ChEMBL document CHEMBL4265925, “Synthesis of 5H-pyrido[3,2-b]pyrrolizin-5-one tripentone analogs with antitumor activity” (Eur J Med Chem, 2018).
Blank lines part the entries; values can stand above or below the compound they belong to. Activity calls are given as the source filed them. No cut-off for these calls is given here.

Assays:
[1] = system: MCF7; experiment: Antiproliferative activity against human MCF7 cells after 72 hrs by MTT assay; type: functional, cell-based; settings: MCF7, 72 h
[2] = system: HCT-116; experiment: Antiproliferative activity against human HCT116 cells after 72 hrs by MTT assay; type: functional, cell-based; settings: HCT-116, 72 h
[3] = species on record: Sus scrofa; experiment: Induction of porcine brain tubulin polymerization at 10 uM measured every 20 secs for 60 mins
[4] = system: Caco-2; experiment: Cytotoxicity against human Caco2 cells assessed as reduction in cell viability at 1 to 10 uM after 72 hrs by MTT assay; type: cell-based; settings: caco-2, 72 h
[5] = system: MCF7; experiment: Induction of apoptosis in human MCF7 cells assessed as viable cells at 3 uM measured after 48 hrs by Annexin-V-FITC/propidium iodide staining based flow cytometric method (reference value: 99.9%); type: functional; settings: MCF7, 48 h, read-out: Activity
[6] = system: HCT-116; experiment: Cell cycle arrest human HCT116 cells assessed as increase in accumulation at subG0/G1 phase at 0.1 uM after 48 hrs by propidium iodide/RNase staining based FACS analysis; type: functional
[7] = system: MCF7; experiment: Cell cycle arrest in human MCF7 cells assessed as decrease in accumulation at G1 phase at 3 uM after 48 hrs by propidium iodide/RNase staining based FACS analysis; type: functional
[8] = system: HCT-116; experiment: Induction of apoptosis in human HCT116 cells assessed as late apoptotic cells at 0.1 uM measured after 48 hrs by Annexin-V-FITC/propidium iodide staining based flow cytometric method (reference value: 0%); type: functional
[9] = system: HCT-116; experiment: Induction of apoptosis in human HCT116 cells assessed as viable cells at 0.1 uM measured after 48 hrs by Annexin-V-FITC/propidium iodide staining based flow cytometric method (reference value: 99.6%); type: functional; settings: HCT-116, 48 h, read-out: Activity
[10] = system: MCF7; experiment: Induction of apoptosis in human MCF7 cells assessed as early apoptotic cells at 3 uM measured after 48 hrs by Annexin-V-FITC/propidium iodide staining based flow cytometric method (reference value: 0.1%); type: functional
[11] = system: MCF7; experiment: Cell cycle arrest in human MCF7 cells assessed as decrease in accumulation at S phase at 3 uM after 48 hrs by propidium iodide/RNase staining based FACS analysis; type: functional
[12] = system: HCT-116; experiment: Cell cycle arrest human HCT116 cells assessed as increase in accumulation at G2/M phase at 0.1 uM after 48 hrs by propidium iodide/RNase staining based FACS analysis; type: functional
[13] = system: HCT-116; experiment: Cell cycle arrest human HCT116 cells assessed as decrease in accumulation at G1 phase at 0.1 uM after 48 hrs by propidium iodide/RNase staining based FACS analysis; type: functional
[14] = system: MCF7; experiment: Cell cycle arrest in human MCF7 cells assessed as increase in accumulation at subG0/G1 phase at 3 uM after 48 hrs by propidium iodide/RNase staining based FACS analysis; type: functional
[15] = system: HCT-116; experiment: Cell cycle arrest human HCT116 cells assessed as decrease in accumulation at S phase at 0.1 uM after 48 hrs by propidium iodide/RNase staining based FACS analysis; type: functional
[16] = system: HCT-116; experiment: Induction of apoptosis in human HCT116 cells assessed as early apoptotic cells at 0.1 uM measured after 48 hrs by Annexin-V-FITC/propidium iodide staining based flow cytometric method (reference value: 0.4%); type: functional
[17] = system: HCT-116; experiment: Induction of apoptosis in human HCT116 cells assessed as necrotic cells at 0.1 uM measured after 48 hrs by Annexin-V-FITC/propidium iodide staining based flow cytometric method (reference value: 0%); type: functional
[18] = system: MCF7; experiment: Induction of apoptosis in human MCF7 cells assessed as necrotic cells at 3 uM measured after 48 hrs by Annexin-V-FITC/propidium iodide staining based flow cytometric method (reference value: 0%); type: functional
[19] = species on record: Sus scrofa; experiment: Inhibition of porcine brain tubulin polymerization at 25 uM measured every 20 secs for 60 mins
[20] = system: MCF7; experiment: Cell cycle arrest in human MCF7 cells assessed as increase in accumulation at G2/M phase at 3 uM after 48 hrs by propidium iodide/RNase staining based FACS analysis; type: functional
[21] = system: MCF7; experiment: Induction of apoptosis in human MCF7 cells assessed as late apoptotic cells at 3 uM measured after 48 hrs by Annexin-V-FITC/propidium iodide staining based flow cytometric method (reference value: 0%); type: functional
[22] = system: MCF7; experiment: Induction of apoptosis in human MCF7 cells assessed as necrotic cells at 2 uM measured after 48 hrs by Annexin-V-FITC/propidium iodide staining based flow cytometric method (reference value: 0%); type: functional
[23] = system: MCF7; experiment: Induction of apoptosis in human MCF7 cells assessed as late apoptotic cells at 2 uM measured after 48 hrs by Annexin-V-FITC/propidium iodide staining based flow cytometric method (reference value: 0%); type: functional
[24] = system: MCF7; experiment: Induction of apoptosis in human MCF7 cells assessed as early apoptotic cells at 2 uM measured after 48 hrs by Annexin-V-FITC/propidium iodide staining based flow cytometric method (reference value: 0.1%); type: functional
[25] = system: HCT-116; experiment: Cell cycle arrest human HCT116 cells assessed as decrease in accumulation at S phase at 0.2 uM after 48 hrs by propidium iodide/RNase staining based FACS analysis; type: functional
[26] = system: MCF7; experiment: Cell cycle arrest in human MCF7 cells assessed as increase in accumulation at G2/M phase at 2 uM after 48 hrs by propidium iodide/RNase staining based FACS analysis; type: functional
[27] = system: MCF7; experiment: Cell cycle arrest in human MCF7 cells assessed as decrease in accumulation at S phase at 2 uM after 48 hrs by propidium iodide/RNase staining based FACS analysis; type: functional
[28] = system: HCT-116; experiment: Induction of apoptosis in human HCT116 cells assessed as late apoptotic cells at 0.2 uM measured after 48 hrs by Annexin-V-FITC/propidium iodide staining based flow cytometric method (reference value: 0%); type: functional
[29] = system: HCT-116; experiment: Induction of apoptosis in human HCT116 cells assessed as early apoptotic cells at 0.2 uM measured after 48 hrs by Annexin-V-FITC/propidium iodide staining based flow cytometric method (reference value: 0.4%); type: functional
[30] = system: HCT-116; experiment: Cell cycle arrest human HCT116 cells assessed as decrease in accumulation at G1 phase at 0.2 uM after 48 hrs by propidium iodide/RNase staining based FACS analysis; type: functional
[31] = system: HCT-116; experiment: Induction of apoptosis in human HCT116 cells assessed as viable cells at 0.2 uM measured after 48 hrs by Annexin-V-FITC/propidium iodide staining based flow cytometric method (reference value: 99.6%); type: functional; settings: HCT-116, 48 h, read-out: Activity
[32] = system: HCT-116; experiment: Cell cycle arrest human HCT116 cells assessed as increase in accumulation at subG0/G1 phase at 0.2 uM after 48 hrs by propidium iodide/RNase staining based FACS analysis; type: functional
[33] = system: HCT-116; experiment: Cell cycle arrest human HCT116 cells assessed as increase in accumulation at G2/M phase at 0.2 uM after 48 hrs by propidium iodide/RNase staining based FACS analysis; type: functional
[34] = system: MCF7; experiment: Cell cycle arrest in human MCF7 cells assessed as increase in accumulation at subG0/G1 phase at 2 uM after 48 hrs by propidium iodide/RNase staining based FACS analysis; type: functional
[35] = system: MCF7; experiment: Induction of apoptosis in human MCF7 cells assessed as viable cells at 2 uM measured after 48 hrs by Annexin-V-FITC/propidium iodide staining based flow cytometric method (reference value: 99.9%); type: functional; settings: MCF7, 48 h, read-out: Activity
[36] = system: MCF7; experiment: Cell cycle arrest in human MCF7 cells assessed as decrease in accumulation at G1 phase at 2 uM after 48 hrs by propidium iodide/RNase staining based FACS analysis; type: functional
[37] = system: HCT-116; experiment: Induction of apoptosis in human HCT116 cells assessed as necrotic cells at 0.2 uM measured after 48 hrs by Annexin-V-FITC/propidium iodide staining based flow cytometric method (reference value: 0%); type: functional
[38] = Inhibition of sheep brain tubulin polymerization incubated at 37 degreeC for 10 mins followed by incubated at 0 degreeC for 5 mins; set-up: species or system Ovis aries
[39] = system: HCT-116; experiment: Cell cycle arrest human HCT116 cells assessed as decrease in accumulation at S phase at 0.3 uM after 48 hrs by propidium iodide/RNase staining based FACS analysis; type: functional
[40] = system: HCT-116; experiment: Cell cycle arrest human HCT116 cells assessed as increase in accumulation at G2/M phase at 0.3 uM after 48 hrs by propidium iodide/RNase staining based FACS analysis; type: functional
[41] = system: HCT-116; experiment: Induction of apoptosis in human HCT116 cells assessed as late apoptotic cells at 0.3 uM measured after 48 hrs by Annexin-V-FITC/propidium iodide staining based flow cytometric method (reference value: 0%); type: functional
[42] = system: HCT-116; experiment: Cell cycle arrest human HCT116 cells assessed as decrease in accumulation at G1 phase at 0.3 uM after 48 hrs by propidium iodide/RNase staining based FACS analysis; type: functional
[43] = system: HCT-116; experiment: Induction of apoptosis in human HCT116 cells assessed as necrotic cells at 0.3 uM measured after 48 hrs by Annexin-V-FITC/propidium iodide staining based flow cytometric method (reference value: 0%); type: functional
[44] = system: HCT-116; experiment: Induction of apoptosis in human HCT116 cells assessed as viable cells at 0.3 uM measured after 48 hrs by Annexin-V-FITC/propidium iodide staining based flow cytometric method (reference value: 99.6%); type: functional; settings: HCT-116, 48 h, read-out: Activity
[45] = system: HCT-116; experiment: Induction of apoptosis in human HCT116 cells assessed as early apoptotic cells at 0.3 uM measured after 48 hrs by Annexin-V-FITC/propidium iodide staining based flow cytometric method (reference value: 0.4%); type: functional
[46] = system: HCT-116; experiment: Cell cycle arrest human HCT116 cells assessed as increase in accumulation at subG0/G1 phase at 0.3 uM after 48 hrs by propidium iodide/RNase staining based FACS analysis; type: functional

Compound: CC(=O)O[C@H]1C(=O)[C@@]2(C)[C@H]([C@H](OC(=O)c3ccccc3)[C@]3(O)C[C@H](OC(=O)[C@H](O)[C@@H](NC(=O)c4ccccc4)c4ccccc4)C(C)=C1C3(C)C)[C@]1(OC(C)=O)CO[C@@H]1C[C@@H]2O
Activity [3]: Active

Compound: O=C(N/N=C1/c2cc(Br)cnc2-n2cccc21)c1ccccc1
IC50 [1]: 14.9 µM
IC50 [2]: 1.74 µM
Activity [4]: Non-Toxic

Compound: O=C(N/N=C1/c2cccnc2-n2cccc21)c1cccs1
IC50 [1]: 3.15 µM
IC50 [2]: 0.46 µM
Activity [4]: Non-Toxic

Compound: COc1ccc(-c2csc3c2-n2cccc2C3=O)cc1O
IC50 [38]: 2.9 µM

Compound: Nc1ccc(C(=O)N/N=C2/c3cc(Br)cnc3-n3cccc32)cc1
Activity [22]: 0%
Activity [23]: 0%
Activity [24]: 24.8%
Activity [39]: Active
Activity [40]: Active
Activity [41]: 0%
IC50 [1]: 1.8 µM
IC50 [2]: 0.23 µM
Activity [26]: Active
Activity [42]: Active
Activity [27]: Active
Activity [43]: 0%
viability at 0.3 µM [44]: 67%
Activity [4]: Non-Toxic
Activity [45]: 32.9%
Activity [46]: Active
Activity [34]: Active
viability at 2 µM [35]: 75.2%
Activity [36]: Active
inhibition [19]: inactive

Now from value to compound, other results behind:

GI50 [1]: 20.7 µM
GI50 [2]: 4.25 µM
Compound: O=C(N/N=C1/c2ncccc2-n2cccc21)c1ccccc1

IC50 [1]: 3.4 µM
IC50 [2]: 0.11 µM
inhibition [19]: inactive
Compound: O=C(N/N=C1/c2cc(Br)cnc2-n2cccc21)c1ccncc1
viability at 3 µM [5]: 76%
Activity [6]: Active
Activity [7]: Active
Activity [8]: 0%
viability at 0.1 µM [9]: 73.3%
Activity [10]: 24%
Activity [11]: Active
Activity [12]: Active
Activity [13]: Active
Activity [14]: Active
Activity [15]: Active
Activity [16]: 26.7%
Activity [4]: Non-Toxic
Activity [17]: 0%
Activity [18]: 0%
Activity [20]: Active
Activity [21]: 0%

IC50 [1]: 1.61 µM
IC50 [2]: 0.17 µM
inhibition [19]: inactive
Compound: O=C(N/N=C1/c2cc(Br)cnc2-n2cccc21)c1ccco1
Activity [22]: 0%
Activity [23]: 0%
Activity [24]: 21.8%
Activity [25]: Active
Activity [26]: Active
Activity [27]: Active
Activity [28]: 0%
Activity [29]: 31.5%
Activity [30]: Active
viability at 0.2 µM [31]: 68.4%
Activity [32]: Active
Activity [4]: Non-Toxic
Activity [33]: Active
Activity [34]: Active
viability at 2 µM [35]: 78.2%
Activity [36]: Active
Activity [37]: 0%

IC50 [1]: 15.6 µM
IC50 [2]: 1.66 µM
Compound: O=C(N/N=C1/c2cc(Br)cnc2-n2cccc21)c1ccc(O)cc1
Activity [4]: Non-Toxic

IC50 [1]: 16.1 µM
IC50 [2]: 2.54 µM
Compound: O=C(N/N=C1/c2cccnc2-n2cccc21)c1ccc(O)cc1
Activity [4]: Non-Toxic
